Experimental data reported in patent US11040038B2, “Methods for treating diseases associated with abnormal ACVR1 expression and ACVR1 inhibitors for use in the same” (Sumitomo Dainippon Pharma Oncology, Inc., priority 2018, dated 2021).
Where “and” joins values, the source holds several entries; their conditions need not be identical. Equal values may be shown once. Read-outs that look alike come from different tables or passages of the source.

Experiment: Pharmacokinetics and relative bioavailability after a single oral dose (two liquid formulations, powder in capsule)
Format: in vivo, male Beagle dogs
Excerpt: The purpose of the study is to dose two suspension formulations of Compound 2 at two dose levels by gavage to Beagle dogs and to collect blood samples for the determination of plasma concentrations, derivation of pharmacokinetic parameters and to determine the relative bioavailability of the two suspension formulations. The pharmacokinetics of Compound 2 would be evaluated following oral administration in capsules and the relative bioavailability of this dosage form to the oral liquid formulations was determined.
This study involves the dosing of the test item by the oral route over three periods separated by a 7 days washout period as outlined in Table 43, Table 44, and Table 45. The third period of the study outlined in Table 45 is considered to be optional and will only be performed at the Sponsor's request. Prior to the day of dosing, food will be removed from the dogs at 4:00 pm and reintroduced 2 hrs after dosing.
For oral administration of the formulations, the test item was administered via a stomach tube followed by the administration of 10 mL of tap water. For oral administration of capsules, the capsule was placed on the back of the tongue to encourage swallowing followed by administration of 10 mL of tap water. The oral cavity was then be inspected to make sure the capsule was swallowed. The actual volume of dosing formulation administered will be calculated based on the animal's most recently scheduled body weight.
The pharmacokinetic parameters for Compound 2 in solution as Formulation #1 (Table 43) and Formulation #2 (Table 44) along with data for the dosing of Compound 2 powder in capsule (Table 45) are presented in Table 46.

[1] = Formulation #1 (Table 43), 2 mg/kg oral, male Beagle dogs, plasma, Mean
[2] = Formulation #1 (Table 43), 2 mg/kg oral, male Beagle dogs, plasma, individual dog, 2 mg/kg
[3] = Formulation #1 (Table 43), 5 mg/kg oral, male Beagle dogs, plasma, Mean
[4] = Formulation #1 (Table 43), 5 mg/kg oral, male Beagle dogs, plasma, individual dog, 5 mg/kg
[5] = Formulation #2 (Table 44), 2 mg/kg oral, male Beagle dogs, plasma, Mean
[6] = Formulation #2 (Table 44), 2 mg/kg oral, male Beagle dogs, plasma, individual dog, 2 mg/kg
[7] = Formulation #2 (Table 44), 5 mg/kg oral, male Beagle dogs, plasma, Mean
[8] = Formulation #2 (Table 44), 5 mg/kg oral, male Beagle dogs, plasma, individual dog, 5 mg/kg
[9] = Powder in Capsule (Table 45), 2 mg/kg oral, male Beagle dogs, plasma, Mean
[10] = Powder in Capsule (Table 45), 2 mg/kg oral, male Beagle dogs, plasma, individual dog, 2 mg/kg
[11] = Powder in Capsule (Table 45), 5 mg/kg oral, male Beagle dogs, plasma, Mean
[12] = Powder in Capsule (Table 45), 5 mg/kg oral, male Beagle dogs, plasma, individual dog, 5 mg/kg
[13] = male, Beagle, dog, plasma, po, 2 mg/kg, Formulation #1 (Table 43), 2 mg/kg oral, male Beagle dogs, Mean

COc1cc(Nc2nccc(Nc3cccnc3-c3ccccn3)n2)ccc1N1CCN(C)CC1 [Compound 2, N^4-(2,2′-bipyridin-3-yl)-N^2-(3-methoxy-4-(4-methylpiperazin-1-yl)phenyl)pyrimidine-2,4-diamine]
Kel [1]: 0.124 h⁻¹
MRTobs [1]: 9.32 h
AUC0-TLast [2]: 87 ng·h/mL and 77 ng·h/mL
AUC0-∞ [2]: 92 ng·h/mL and 82 ng·h/mL
CL/F [2]: 367 mL/min/kg and 400 mL/min/kg
Cmax [2]: 8.69 ng/mL and 7.27 ng/mL
Kel [2]: 0.116 h⁻¹ and 0.133 h⁻¹ and 0.124 h⁻¹
MRTobs [2]: 10.05 h and 8.64 h and 9.26 h
t1/2 [2]: 5.2 h
Kel [3]: 0.138 h⁻¹
MRTobs [3]: 8.71 h
AUC0-TLast [4]: 190 ng·h/mL and 453 ng·h/mL and 198 ng·h/mL
AUC0-∞ [4]: 204 ng·h/mL and 475 ng·h/mL
CL/F [4]: 417 mL/min/kg and 183 mL/min/kg
Cmax [4]: 15.51 ng/mL and 46.76 ng/mL and 21.15 ng/mL
Kel [4]: 0.115 h⁻¹ and 0.136 h⁻¹ and 0.162 h⁻¹
MRTobs [4]: 9.72 h and 8.6 h and 7.82 h
t1/2 [4]: 5.1 h and 4.3 h
Kel [5]: 0.150 h⁻¹
MRTobs [5]: 8.49 h
AUC0-TLast [6]: 115 ng·h/mL and 44 ng·h/mL
AUC0-∞ [6]: 148 ng·h/mL and 120 ng·h/mL and 47 ng·h/mL
CL/F [6]: 217 mL/min/kg and 283 mL/min/kg and 717 mL/min/kg
Cmax [6]: 19.72 ng/mL and 10.43 ng/mL and 4.59 ng/mL
Kel [6]: 0.179 h⁻¹ and 0.145 h⁻¹ and 0.125 h⁻¹
MRTobs [6]: 7.31 h and 9.2 h and 8.96 h
t1/2 [6]: 4.8 h and 5.5 h
Kel [7]: 0.142 h⁻¹
MRTobs [7]: 8.28 h
AUC0-TLast [8]: 151 ng·h/mL and 342 ng·h/mL and 141 ng·h/mL
AUC0-∞ [8]: 159 ng·h/mL and 357 ng·h/mL and 146 ng·h/mL
CL/F [8]: 517 mL/min/kg and 233 mL/min/kg and 567 mL/min/kg
Cmax [8]: 17.70 ng/mL and 34.08 ng/mL and 14.91 ng/mL
Kel [8]: 0.129 h⁻¹ and 0.142 h⁻¹ and 0.153 h⁻¹
MRTobs [8]: 8.44 h and 8.7 h and 7.71 h
t1/2 [8]: 4.9 h and 4.5 h
Kel [9]: 0.304 h⁻¹
MRTobs [9]: 5.23 h
AUC0-TLast [10]: 53 ng·h/mL and 49 ng·h/mL and 112 ng·h/mL
AUC0-∞ [10]: 58 ng·h/mL and 122 ng·h/mL
CL/F [10]: 583 mL/min/kg and 267 mL/min/kg
Cmax [10]: 9.55 ng/mL and 13.83 ng/mL and 21.31 ng/mL
Kel [10]: 0.293 h⁻¹ and 0.314 h⁻¹
MRTobs [10]: 5.15 h and 5.30 h
t1/2 [10]: 2.2 h
Kel [11]: 0.233 h⁻¹
MRTobs [11]: 6.44 h
AUC0-TLast [12]: 139 ng·h/mL and 107 ng·h/mL
AUC0-∞ [12]: 142 ng·h/mL and 122 ng·h/mL
CL/F [12]: 583 mL/min/kg and 683 mL/min/kg
Cmax [12]: 43.79 ng/mL and 14.66 ng/mL and 18.21 ng/mL
Kel [12]: 0.255 h⁻¹ and 0.183 h⁻¹ and 0.261 h⁻¹
MRTobs [12]: 5.79 h and 7.62 h and 5.92 h
t1/2 [12]: 3.8 h
time of appearance in the plasma post dosing (beagle dogs, oral, all formulations): ≤ 0.5 h
Cmax (male, Beagle, dog, plasma, po, 2 mg/kg, 2 mg/kg oral, range across Formulation #1, #2 and powder in capsules, read-out: mean Cmax): 6.78 to 14.9 ng/mL
AUC(0-inf) [13]: 74 ng·h/mL
Tmax [13]: 4.7 h
half-life [13]: 5.6 h
AUC(0-inf) (male, Beagle, dog, plasma, po, 2 mg/kg, Formulation #1 (Table 43), 2 mg/kg oral, male Beagle dogs, individual dog): 49 ng·h/mL
